{"source": "paper PMC10977726", "about": "(PLOS ONE, 2024)", "key": {"[1]": {"biological_target": "T1, human IgG Fc (Homo sapiens, UniProt P01857)", "T1 construct": "Biotin-SP-ChromPure Human IgG, Fc fragment; purchased Jackson Immunoresearch Labs Inc. 009060008", "assay": "Phage competition ELISA for epitope mapping (various synthetic DCPs vs phage displaying one DCP)", "assay_type": "binding"}, "[2]": {"conditions": "100% human serum, 0.2 mM DCP, 37°C, LC-MS, UV 220 nm peak area normalized to 0 h, three independent experiments"}}}
{"smiles": "CC[C@H](C)[C@@H]1NC(=O)[C@H](CO)NC(=O)[C@H]([C@@H](C)CC)NC(=O)[C@H](CO)NC(=O)[C@H](CO)NC(=O)[C@@H]2CSSC[C@@H]3NC(=O)[C@H](CO)NC(=O)CNC(=O)[C@H]([C@@H](C)O)NC(=O)[C@H](CSSC[C@H](NC(=O)[C@@H](N)CCC(=O)O)C(=O)N[C@@H](CCCCN)C(=O)NCC(=O)N[C@@H](CCCCN)C(=O)NCC(=O)N[C@@H](C)C(=O)N[C@@H](CCCCN)C(=O)N2)NC(=O)[C@H](CSSC[C@@H](C(=O)O)NC(=O)[C@H](CCCCN)NC(=O)CNC(=O)[C@H](CO)NC(=O)[C@H](CCCNC(=N)N)NC3=O)NC(=O)[C@H](Cc2c[nH]cn2)NC(=O)[C@H](C)NC(=O)[C@H](CC(=O)O)NC(=O)[C@H](Cc2c[nH]cn2)NC1=O", "note": "[Ig-CON-5]", "values": [{"measurement": "inhibition of interaction between biotinylated hIgG Fc and phage displaying Ig-AMP-1", "setting": "[1]; Fig 4D", "value": "potently inhibited"}, {"measurement": "inhibition of interaction between human IgG Fc and phage displaying Ig-CON-5", "setting": "[1]; Fig S15", "value": "potently inhibited"}, {"measurement": "loss of peptides after 24 h", "setting": "[2]", "value": "40–50%"}]}
